{"source": "ChEMBL document CHEMBL1146026", "about": "“Novel, potent, selective, and orally bioavailable human betaII-tryptase inhibitors” (Bioorg Med Chem Lett, 2006)", "key": {"Trypsin": {"target": "Trypsin (Homo sapiens, UniProt P07477+P07478+P35030)", "test": "Binding affinity to trypsin", "assay_type": "protein assay"}, "Tryptase beta-1 [1]": {"target": "T1, Tryptase beta-1 (Homo sapiens, UniProt Q15661)", "T1 sequence (Q15661 whole entry)": "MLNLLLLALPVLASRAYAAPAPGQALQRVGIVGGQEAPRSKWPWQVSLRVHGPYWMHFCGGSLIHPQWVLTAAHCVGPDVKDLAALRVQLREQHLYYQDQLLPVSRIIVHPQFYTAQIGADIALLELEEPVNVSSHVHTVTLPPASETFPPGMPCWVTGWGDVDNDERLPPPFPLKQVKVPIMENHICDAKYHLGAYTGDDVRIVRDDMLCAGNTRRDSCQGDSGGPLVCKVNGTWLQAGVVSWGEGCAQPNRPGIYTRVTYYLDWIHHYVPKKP", "test": "Binding affinity to human tryptase beta2"}, "Tryptase beta-1 [2]": {"target": "T1, Tryptase beta-1", "test": "Binding affinity to recombinant cynomolgus monkey tryptase"}, "[3]": {"test": "AUC in iv or po dosed rat", "assay_type": "ADME, organism-based", "settings": "plasma"}, "[4]": {"test": "Clearance in iv or po dosed rat", "assay_type": "ADME, organism-based", "settings": "in vivo"}, "[5]": {"test": "Oral bioavailability in iv or po dosed rat", "assay_type": "ADME, organism-based", "settings": "in vivo"}, "[6]": {"test": "Cmax in iv or po dosed rat", "assay_type": "ADME, organism-based", "settings": "in vivo"}, "Tryptase [7]": {"target": "Tryptase (Canis lupus familiaris, UniProt P15944)", "sequence (P15944 whole entry)": "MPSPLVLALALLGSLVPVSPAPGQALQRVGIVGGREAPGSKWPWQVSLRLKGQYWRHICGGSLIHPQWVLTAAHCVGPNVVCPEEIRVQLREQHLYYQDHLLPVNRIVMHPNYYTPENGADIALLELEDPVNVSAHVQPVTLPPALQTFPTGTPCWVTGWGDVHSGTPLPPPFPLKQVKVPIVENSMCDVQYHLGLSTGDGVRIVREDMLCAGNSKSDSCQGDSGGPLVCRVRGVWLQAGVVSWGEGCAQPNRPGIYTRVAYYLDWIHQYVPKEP", "test": "Binding affinity to dog tryptase"}, "[8]": {"test": "Mean residence time in iv or po dosed rat", "assay_type": "ADME, organism-based", "settings": "in vivo, read-out: Vdss"}, "[9]": {"test": "Volume of distribution in iv or po dosed rat", "assay_type": "ADME, organism-based", "settings": "in vivo, read-out: Vc"}, "[10]": {"test": "Bioavailability in ip dosed mouse", "assay_type": "ADME, organism-based", "settings": "in vivo"}, "[11]": {"test": "Oral absorption in iv or po dosed rat", "assay_type": "ADME, organism-based", "settings": "in vivo"}, "Tryptase [12]": {"target": "T2, Tryptase (Mus musculus, UniProt Q02844)", "T2 sequence (Q02844 whole entry)": "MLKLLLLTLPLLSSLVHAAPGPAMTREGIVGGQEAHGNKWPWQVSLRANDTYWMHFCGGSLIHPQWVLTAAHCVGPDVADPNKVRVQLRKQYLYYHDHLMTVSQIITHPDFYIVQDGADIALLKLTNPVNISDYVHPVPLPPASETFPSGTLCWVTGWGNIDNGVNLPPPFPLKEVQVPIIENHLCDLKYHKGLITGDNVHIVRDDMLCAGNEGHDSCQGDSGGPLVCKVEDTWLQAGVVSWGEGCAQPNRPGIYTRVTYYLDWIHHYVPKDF", "test": "Binding affinity to mouse tryptase"}, "Tryptase [13]": {"target": "T3, Tryptase (Rattus norvegicus, UniProt P27435)", "T3 sequence (P27435 whole entry)": "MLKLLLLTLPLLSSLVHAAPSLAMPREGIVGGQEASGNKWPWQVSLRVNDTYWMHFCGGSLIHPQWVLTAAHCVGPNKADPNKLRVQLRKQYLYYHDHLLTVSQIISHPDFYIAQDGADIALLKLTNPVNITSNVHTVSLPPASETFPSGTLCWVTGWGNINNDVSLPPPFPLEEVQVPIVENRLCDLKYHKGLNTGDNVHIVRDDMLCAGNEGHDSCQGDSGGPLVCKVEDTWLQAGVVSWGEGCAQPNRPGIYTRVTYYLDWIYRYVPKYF", "test": "Binding affinity to rat tryptase"}, "[14]": {"test": "Binding affinity to elastase", "parameters": "species or system Homo sapiens"}}, "data": [{"smiles": "NCCCC[C@H](NC(=O)OCc1ccccc1)C(=O)c1noc(Cc2ccc(OCCc3cccc(Cl)c3)cc2)n1", "values": [{"measurement": "Ki app", "setting": "Trypsin", "result": 190, "unit": "nM"}, {"measurement": "Ki", "setting": "Tryptase beta-1 [1]", "result": 13, "unit": "nM"}]}, {"smiles": "NCCCC[C@H](NC(=O)OCc1ccccc1)C(=O)c1noc(Cc2ccc(OCCCc3ccccc3)cc2)n1", "values": [{"measurement": "Ki app", "setting": "Trypsin", "result": 41, "unit": "nM"}, {"measurement": "Ki", "setting": "Tryptase beta-1 [1]", "result": 25, "unit": "nM"}]}, {"smiles": "NCCCC[C@H](NC(=O)OCc1ccccc1)C(=O)c1noc(Cc2ccc(OCc3ccccc3)cc2)n1", "values": [{"measurement": "Ki app", "setting": "Trypsin", "result": 24, "unit": "nM"}, {"measurement": "Ki", "setting": "Tryptase beta-1 [1]", "result": 180, "unit": "nM"}]}, {"smiles": "COc1ccc(CCOc2ccc(Cc3nc(C(=O)[C@H](CCCCN)NC(=O)OCc4ccccc4)no3)cc2)cc1OC", "values": [{"measurement": "Ki app", "setting": "Trypsin", "result": 11, "unit": "nM"}, {"measurement": "Ki", "setting": "Tryptase beta-1 [1]", "result": 24, "unit": "nM"}]}, {"smiles": "NCCCC[C@H](NC(=O)OCc1ccccc1)C(=O)c1noc(Cc2ccc(OCCC3CCCCC3)cc2)n1", "values": [{"measurement": "Ki app", "setting": "Trypsin", "result": 1000, "unit": "nM"}, {"measurement": "Ki", "setting": "Tryptase beta-1 [1]", "result": 1100, "unit": "nM"}]}, {"smiles": "NCCCC[C@H](NC(=O)OCc1ccccc1)C(=O)c1noc(Cc2ccc(OCCc3cccc4ccccc34)cc2)n1", "values": [{"measurement": "Ki app", "setting": "Trypsin", "result": 95, "unit": "nM"}, {"measurement": "Ki", "setting": "Tryptase beta-1 [1]", "result": 78, "unit": "nM"}]}, {"smiles": "CCOC(=O)N[C@@H](CCCCN)C(=O)c1noc(Cc2ccc(OCCc3ccccc3)cc2)n1", "values": [{"measurement": "Ki", "setting": "Tryptase beta-1 [2]", "result": 46.5, "unit": "nM"}, {"measurement": "AUC", "setting": "[3]", "result": 0.183, "unit": "µM·h"}, {"measurement": "clearance", "setting": "[4]", "result": 93, "unit": "mL/min/kg"}, {"measurement": "bioavailability", "setting": "[5]", "result": 8.4, "unit": "%"}, {"measurement": "Cmax", "setting": "[6]", "result": 590, "unit": "nM"}, {"measurement": "Ki", "setting": "Tryptase [7]", "result": 380, "unit": "nM"}, {"measurement": "Vd", "setting": "[8]", "result": 7, "unit": "L/kg"}, {"measurement": "Vd", "setting": "[9]", "result": 0.91, "unit": "L/kg"}, {"measurement": "bioavailability", "setting": "[10]", "result": 68, "unit": "%"}, {"measurement": "Fa", "setting": "[11]", "result": 18, "unit": "%"}, {"measurement": "Ki", "setting": "Tryptase [12]", "result": 43.5, "unit": "nM"}, {"measurement": "Ki", "setting": "Tryptase [13]", "result": 5.5, "unit": "nM"}, {"measurement": "Ki", "setting": "[14]", "result": "> 150000", "unit": "nM"}]}, {"smiles": "COc1ccc(CCOc2ccc(Cc3nc(C(=O)[C@H](CCCCN)NC(=O)OCc4ccccc4)no3)cc2)cc1", "values": [{"measurement": "Ki app", "setting": "Trypsin", "result": 34, "unit": "nM"}, {"measurement": "Ki", "setting": "Tryptase beta-1 [1]", "result": 19, "unit": "nM"}]}, {"smiles": "NCCCC[C@H](NC(=O)OCc1ccccc1)C(=O)c1noc(Cc2ccc(OCCc3ccc(Cl)c(Cl)c3)cc2)n1", "values": [{"measurement": "Ki app", "setting": "Trypsin", "result": 280, "unit": "nM"}, {"measurement": "Ki", "setting": "Tryptase beta-1 [1]", "result": 10, "unit": "nM"}]}, {"smiles": "NCCCC[C@H](NC(=O)OCc1ccccc1)C(=O)c1noc(Cc2ccc(OCCc3ccc(F)cc3)cc2)n1", "values": [{"measurement": "Ki app", "setting": "Trypsin", "result": 110, "unit": "nM"}, {"measurement": "Ki", "setting": "Tryptase beta-1 [1]", "result": 16, "unit": "nM"}]}, {"smiles": "NCCCC[C@H](NC(=O)OCc1ccccc1)C(=O)c1noc(Cc2cccc(OCCCc3ccccc3)c2)n1", "values": [{"measurement": "Ki app", "setting": "Trypsin", "result": 92, "unit": "nM"}, {"measurement": "Ki", "setting": "Tryptase beta-1 [1]", "result": 120, "unit": "nM"}]}, {"smiles": "NCCC[C@H](NC(=O)OCc1ccccc1)C(=O)c1noc(Cc2ccccc2)n1", "values": [{"measurement": "Ki app", "setting": "Trypsin", "result": 68, "unit": "nM"}, {"measurement": "Ki", "setting": "Tryptase beta-1 [1]", "result": 2700, "unit": "nM"}]}, {"smiles": "NCCCC[C@H](NC(=O)OCc1ccccc1)C(=O)c1noc(Cc2ccc(OCCc3ccc(Cl)cc3)cc2)n1", "values": [{"measurement": "Ki app", "setting": "Trypsin", "result": 270, "unit": "nM"}, {"measurement": "Ki", "setting": "Tryptase beta-1 [1]", "result": 14, "unit": "nM"}]}, {"smiles": "COc1cccc(CCOc2ccc(Cc3nc(C(=O)[C@H](CCCCN)NC(=O)OCc4ccccc4)no3)cc2)c1", "values": [{"measurement": "Ki app", "setting": "Trypsin", "result": 59, "unit": "nM"}, {"measurement": "Ki", "setting": "Tryptase beta-1 [1]", "result": 41, "unit": "nM"}]}, {"smiles": "NCCCC[C@H](NC(=O)OCc1ccccc1)C(=O)c1noc(Cc2ccc(OCCc3ccc(Cl)cc3Cl)cc2)n1", "values": [{"measurement": "Ki app", "setting": "Trypsin", "result": 410, "unit": "nM"}, {"measurement": "Ki", "setting": "Tryptase beta-1 [1]", "result": 96, "unit": "nM"}]}, {"smiles": "NCCCC[C@H](NC(=O)OCc1ccccc1)C(=O)c1noc(Cc2ccc(OCCc3ccc4ccccc4c3)cc2)n1", "values": [{"measurement": "Ki app", "setting": "Trypsin", "result": 140, "unit": "nM"}, {"measurement": "Ki", "setting": "Tryptase beta-1 [1]", "result": 27, "unit": "nM"}]}, {"smiles": "NCCCC[C@H](NC(=O)OCc1ccccc1)C(=O)c1noc(Cc2cccc(OCCc3ccccc3)c2)n1", "values": [{"measurement": "Ki app", "setting": "Trypsin", "result": 82, "unit": "nM"}, {"measurement": "Ki", "setting": "Tryptase beta-1 [1]", "result": 360, "unit": "nM"}]}, {"smiles": "NCCCC[C@H](NC(=O)OCc1ccccc1)C(=O)c1noc(Cc2ccc(OCCc3ccccc3)cc2)n1", "values": [{"measurement": "Ki app", "setting": "Trypsin", "result": 35, "unit": "nM"}]}]}
